Laboratory results: patent US4837215A, “Penem derivatives” (Farmitalia Carlo Erba, priority 1985, dated 1989)
≈ marks a conversion by molar mass, not a printed value. Read-outs that look alike come from different tables or passages of the source.

Tests used:
Format in all cases: cell-based
[1] = tested on: Escherichia coli B Cef. R (β-lact.+); assay: Antibacterial in vitro activity (MIC), Escherichia coli B Cef. R (β-lact.+)
Excerpt: (§1) Comparison between the antibacterial in vitro
(§2) activity (MIC, μg/ml) of compounds (1)
(§3) and (31) and a reference drug: Moxalactam

[2] = tested on: Staphylococcus aureus 209 P; assay: Antibacterial in vitro activity (MIC), Staphylococcus aureus 209 P
Excerpt: as §1, §2, §3

[3] = tested on: Citrobacter freundii ATCC 8090; assay: Antibacterial in vitro activity (MIC), Citrobacter freundii ATCC 8090; details: ATCC8090
Excerpt: as §1, §2, §3

[4] = tested on: Streptococcus pyrogenes ATCC 12384; assay: Antibacterial in vitro activity (MIC), Streptococcus pyrogenes ATCC 12384; details: ATCC12384
Excerpt: as §1, §2, §3

[5] = tested on: Staphylococcus aureus Smith ATCC 13709; assay: Antibacterial in vitro activity (MIC), Staphylococcus aureus Smith ATCC 13709; details: ATCC13709
Excerpt: as §1, §2, §3

[6] = tested on: Shigella flexneri ATCC 11836; assay: Antibacterial in vitro activity (MIC), Shigella flexneri ATCC 11836; details: ATCC11836
Excerpt: as §1, §2, §3

Acinobacter = assay: Antibacterial in vitro activity (MIC), Acinobacter
Excerpt: as §1, §2, §3

[7] = tested on: Enterobacter cloacae P 99 (β-lact.+); assay: Antibacterial in vitro activity (MIC), Enterobacter cloacae P 99 (β-lact.+)
Excerpt: as §1, §2, §3

[8] = tested on: Klebsiella aerogenes 1082E (β-lact.+); assay: Antibacterial in vitro activity (MIC), Klebsiella aerogenes 1082E (β-lact.+)
Excerpt: as §1, §2, §3

[9] = tested on: Escherichia coli 026/B6 Cef R; assay: Antibacterial in vitro activity (MIC), Escherichia coli 026/B6 Cef R; details: 026/B6CEFR
Excerpt: as §1, §2, §3

[10] = tested on: Pseudomonas aeruginosa (6 strains); assay: Antibacterial in vitro activity (MIC), Pseudomonas aeruginosa (6 strains)
Excerpt: as §1, §2, §3

[11] = Escherichia coli B Cef. R (β-lact.+), read-out: MIC
[12] = Enterobacter cloacae P 99 (β-lact.+), read-out: MIC
[13] = Klebsiella aerogenes 1082E (β-lact.+), read-out: MIC

| Compound | MIC [1, 11] | MIC [2] | MIC ([3]; Citrobacter freundii ATCC 8090, read-out: MIC) | MIC [4] | MIC [5] | MIC [6] | MIC (Acinobacter) | MIC [7, 12] | MIC [8, 13] | MIC [9] | MIC [10] | MIC ([1]; Escherichia coli) | MIC ([3]; Citrobacter freundii) | MIC ([7]; Enterobacter cloacae) | MIC ([8]; Klebsiella aerogenes) |
| --- | --- | --- | --- | --- | --- | --- | --- | --- | --- | --- | --- | --- | --- | --- | --- |
| C[C@@H](O)[C@H]1C(=O)N2C(C(=O)[O-])=C(SCC[n+]3ccccc3)S[C@H]12 [Compound 1, (5R,6S)-6-[(1R)-hydroxyethyl]-2-(2-pyridinioethylthio) penem-3-carboxylate] | 0.78 µg/mL (≈ 2.21 µM) | 0.011 µg/mL (≈ 0.0312 µM) | 0.78 µg/mL (≈ 2.21 µM) | ≤ 0.005 µg/mL | 0.222 µg/mL (≈ 0.63 µM) | 0.39 µg/mL (≈ 1.11 µM) | 0.78 µg/mL (≈ 2.21 µM) | 0.78 µg/mL (≈ 2.21 µM) | 0.78 µg/mL (≈ 2.21 µM) | 0.39 µg/mL (≈ 1.11 µM) | 9.92 µg/mL (≈ 28.1 µM) | – | – | – | – |
| C[C@@H](O)[C@H]1C(=O)N2C(C(=O)[O-])=C(Oc3ccc(C[n+]4ccccc4)cc3)S[C@H]12 [Compound 31] | – | 0.022 µg/mL (≈ 0.0552 µM) | – | 0.011 µg/mL (≈ 0.0276 µM) | 0.045 µg/mL (≈ 0.113 µM) | 1.56 µg/mL (≈ 3.92 µM) | – | – | – | 0.78 µg/mL (≈ 1.96 µM) | – | 1.56 µg/mL (≈ 3.92 µM) | 1.56 µg/mL (≈ 3.92 µM) | 1.56 µg/mL (≈ 3.92 µM) | 1.56 µg/mL (≈ 3.92 µM) |
| CO[C@@]1(NC(=O)C(C(=O)O)c2ccc(O)cc2)C(=O)N2C(C(=O)O)=C(CSc3nnnn3C)CO[C@@H]21 (stereo partly shown) [Moxalactam, reference compound] | 2.5 µg/mL (≈ 4.8 µM) | 0.31 µg/mL (≈ 0.596 µM) | – | 2.5 µg/mL (≈ 4.8 µM) | 0.31 µg/mL (≈ 0.596 µM) | 0.15 µg/mL (≈ 0.288 µM) | – | 3.12 µg/mL (≈ 5.99 µM) | 0.78 µg/mL (≈ 1.5 µM) | 2.5 µg/mL (≈ 4.8 µM) | – | – | – | – | – |
